From patent publication US12059471B2, “Complex” (UNITED IMMUNITY, CO., LTD., priority 2020, dated 2024)
In the oligonucleotide strings, read from the 5' end, every base follows the letter of its sugar. An asterisk marks phosphorothioate; unmarked linkages are phosphodiester. Other units and linkages are bracketed, terminal groups are in braces. A string of capitals states the bases alone. {Chol-TEG} = cholesterol attached through a triethylene glycol linker; d = 2'-deoxy (DNA)

Experiment: Complexation evaluation by size exclusion chromatography (SEC/HPLC)
Assay type: physicochemical
Conditions: Chol-CpG 20 uM, SEC, UV 260 nm, PBS
Description: As complexation evaluation of the Chol-CpG (K3)/CHP nanogel complex sample prepared in Test Example 1-5, size exclusion chromatography (SEC) was carried out. The conditions were as follows. Column: G3000SWXL (Tosoh Corporation), 7.8 mm×150 mm, detector: UV (260 nm), column detection temperature: 35° C., injection amount: 20 uL, flow rate: 0.5 mL/min, eluent: PBS (pH: 7.4). Using PBS as an eluent, the eluate was detected at 260 nm, which was an absorption wavelength specific to CpG, which was a nucleic acid adjuvant.
As the complexation evaluation of the Chol-CpG (D35)/CHP nanogel complex sample prepared in Test Example 2-3, size exclusion chromatography (SEC) was carried out in the same manner as in Test Example 1-6.

Q: With “Chol-CpG (D35): Cholesterol linked to 5′-end of D35 CpG oligonucleotide (SEQ ID NO 2) through a triethylene glycol linker (DNA {Chol-TEG}-dG*dGdTdGdCdAdTdCdGdAdTdGdCdAdGdGdGdG*dG*dG)” as the substance, how does the “complexed ratio with the nanogel” value (CHP nanogel 40 uM, molar ratio nanogel:Chol-CpG 2:1) read?
A: ~100%

Q: What about the “complexed ratio with the nanogel” value (molar ratio nanogel:Chol-CpG 1:1) of the same substance?
A: about 90%
